Experimental data taken from US11453663B2, “Substituted propanamides as inhibitors of nucleases” (MASARYKOVA UNIVERZITA, priority 2018, dated 2022).

Key:
DR-GFP U2OS cells = experiment: HR assay (GFP fluorescence by flow cytometry after I-SceI transfection); assay type: cell-based; details: Homo sapiens, 25 μM inhibitor, 72 hours after transfection
Description: DR-GFP U2OS cells (Methods in Molecular Biology 2012, 920, 379.) were transfected with 2.5 μg of I-SceI-expressing pCAGGS vector and treated with the inhibitors at 25 μM concentration. 72 hours after the transfection, the cells were trypsinized and resuspended in 3% BSA in PBS. GFP fluorescence detection was carried out using a BD FACSVerse flow cytometer and data analyzed with FlowJo software.

MRE11 = MRE11 (Homo sapiens (Human), UniProt P49959); experiment: HTS nuclease assay (fluorescence-quenched 5′ overhang DNA substrate cleavage); assay type: biochemical; details: 18 nM MRE11, 40 nM DNA substrate, analysis at t=4 h
Description: DNA Substrate Preparation
The DNA substrate is prepared by mixing the oligonucleotides listed below in a 1:1 ratio to reach a final concentration of 6 μM in a buffer containing 50 mM Tris pH 7.5, 100 mM NaCl and 8 mM MgCl2.
The mixture is heat for 3 min at 65° C. and let to cool down slowly to RT. Then it is stored at −20° C.
This substrate is a 5′ overhang, which is a preferred substrate of MRE11. […] The fluorescence increases upon substrate cleavage by MRE11, when separation of the two labels occur.
The conditions of the assay are as follows:
Total reaction volume: 5 μL
DNA substrate concentration in the reaction: 40 nM
Inhibitor concentration range tested: 7 nM-50 μM
Each plate contains a series of high and low signal control wells, where no compound is added:
High signal: MRE11+DNA substrate
Low signal: DNA substrate only
These are used during data evaluation.
Two Extra Assay Controls:
1) To check whether unwinding of DNA by the compounds alone occurs.
The DNA substrate [CY5+BBQ(650)] is mixed with the compounds with no protein present.
The CY5 single stranded oligo is mixed with the compounds with no protein present.
The layout of the plates is created by the in-house software (CZ-Openscreen Prague) and this information is transferred to the robotic HTS station.
The reaction is started by the addition of DNA and the reaction time is counted from that moment, including a 15 min delay. Ten timepoints are measured:
The assay data analysis was performed at t=4 h. This corresponds to the time when the reaction is close to its maximum.
The data analysis was performed using the in-house software (CZ-Openscreen Prague) to obtain IC50 for each compound.

MRE11, sequence (P49959 whole entry): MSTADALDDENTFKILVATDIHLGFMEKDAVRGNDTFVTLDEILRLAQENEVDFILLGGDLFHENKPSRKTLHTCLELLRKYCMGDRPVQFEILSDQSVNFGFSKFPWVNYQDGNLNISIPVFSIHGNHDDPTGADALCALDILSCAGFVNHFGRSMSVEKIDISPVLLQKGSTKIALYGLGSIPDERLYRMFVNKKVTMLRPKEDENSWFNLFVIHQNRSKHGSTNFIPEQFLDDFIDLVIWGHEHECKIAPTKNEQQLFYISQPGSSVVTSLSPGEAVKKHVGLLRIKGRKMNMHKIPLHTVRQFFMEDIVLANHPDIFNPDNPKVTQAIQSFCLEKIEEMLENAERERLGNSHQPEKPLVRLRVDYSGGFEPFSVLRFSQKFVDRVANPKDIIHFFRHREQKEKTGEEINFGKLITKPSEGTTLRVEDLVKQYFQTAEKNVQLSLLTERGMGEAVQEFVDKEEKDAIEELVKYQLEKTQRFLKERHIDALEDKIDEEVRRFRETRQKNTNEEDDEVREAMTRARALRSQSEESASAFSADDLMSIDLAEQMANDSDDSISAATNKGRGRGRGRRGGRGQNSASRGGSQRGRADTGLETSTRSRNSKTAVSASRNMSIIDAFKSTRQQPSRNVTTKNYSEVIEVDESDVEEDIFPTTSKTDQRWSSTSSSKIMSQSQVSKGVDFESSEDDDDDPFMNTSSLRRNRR

| Compound | inhibition at 25 µM (DR-GFP U2OS cells) | IC50 (MRE11) |
| --- | --- | --- |
| COc1ccnc(-c2csc(NC(=O)C(C#N)Cc3ccc(O)c(O)c3)n2)c1 (stereo not drawn) [Preparative Example 167, 2-cyano-3-(3,4-dihydroxyphenyl)-N-(4-(4-methoxypyridin-2-yl)thiazol-2-yl)propanamide] | > 75% | < 2 µM |
| CC(C)(C)c1ccc(-c2csc(NC(=O)C(C#N)Cc3cc(C(C)(C)C)c(O)c(C(C)(C)C)c3)n2)cc1 (stereo not drawn) [Preparative Example 150, N-(4-(4-(tert-butyl)phenyl)thiazol-2-yl)-2-cyano-3-(3,5-di-tert-butyl-4-hydroxyphenyl)propanamide] | > 75% |  |
| N#CC(Cc1cc(F)c(O)c(Cl)c1)C(=O)Nc1nc(-c2ccccc2)cs1 (stereo not drawn) [Preparative Example 156, 3-(3-chloro-5-fluoro-4-hydroxyphenyl)-2-cyano-N-(4-phenylthiazol-2-yl)propanamide] | < 50% | 2 to 10 µM |
| COc1cccc(-c2csc(NC(=O)C(C#N)Cc3ccc(O)c(O)c3)n2)n1 (stereo not drawn) [Preparative Example 170, 2-cyano-3-(3,4-dihydroxyphenyl)-N-(4-(6-methoxypyridin-2-yl)thiazol-2-yl)propanamide] | 50 to 75% | 2 to 10 µM |
| N#CC(Cc1ccc(O)c(O)c1)C(=O)Nc1nc(-c2ccccc2C(F)(F)F)cs1 (stereo not drawn) [Preparative Example 159, 2-cyano-3-(3,4-dihydroxyphenyl)-N-(4-(2-(trifluoromethyl)phenyl)thiazol-2-yl)propanamide] | < 50% | 2 to 10 µM |
| CC(C)(C)c1cc(CC(C#N)C(=O)Nc2nc(-c3ccccn3)cs2)cc(C(C)(C)C)c1O (stereo not drawn) [Preparative Example 169, 2-cyano-3-(3,5-di-tert-butyl-4-hydroxyphenyl)-N-(4-(pyridin-2-yl)thiazol-2-yl)propanamide] | > 75% | 10 to 90 µM |
| N#CC(Cc1ccc(O)c(O)c1)C(=O)Nc1nc(-c2ccccc2)c(C2CCCCC2)s1 (stereo not drawn) [Preparative Example 146, 2-cyano-N-(5-cyclohexyl-4-phenylthiazol-2-yl)-3-(3,4-dihydroxyphenyl)propanamide] | > 75% | 2 to 10 µM |
| Cc1cccc(-c2csc(NC(=O)C(C#N)Cc3ccc(O)c(O)c3)n2)n1 (stereo not drawn) [Preparative Example 158, 2-cyano-3-(3,4-dihydroxyphenyl)-N-(4-(6-methylpyridin-2-yl)thiazol-2-yl)propanamide] | > 75% | 2 to 10 µM |
| Cc1cc(CC(C#N)C(=O)Nc2nc(-c3ccc(C(C)(C)C)cc3)cs2)cc(C)c1O (stereo not drawn) [Preparative Example 149, N-(4-(4-(tert-butyl)phenyl)thiazol-2-yl)-2-cyano-3-(4-hydroxy-3,5-dimethylphenyl)propanamide] | > 75% | 10 to 90 µM |
| Cc1ccc(-c2csc(NC(=O)C(C#N)Cc3ccc(O)c(O)c3)n2)cc1 (stereo not drawn) [Preparative Example 133, 2-cyano-3-(3,4-dihydroxyphenyl)-N-(4-(p-tolyl)thiazol-2-yl)propanamide] | < 50% | 2 to 10 µM |
| N#CC(Cc1ccc(O)c(O)c1)C(=O)Nc1nc(-c2ccc3c(c2)CCCC3)cs1 (stereo not drawn) [Preparative Example 153, 2-cyano-3-(3,4-dihydroxyphenyl)-N-(4-(5,6,7,8-tetrahydronaphthalen-2-yl)thiazol-2-yl)propanamide] | > 75% | 2 to 10 µM |
| CC(c1ccc(O)c(O)c1)C(C#N)C(=O)Nc1nc(-c2ccccc2)cs1 (stereo not drawn) [Preparative Example 177, 2-cyano-3-(3,4-dihydroxyphenyl)-N-(4-phenylthiazol-2-yl)butanamide] | 50 to 75% |  |
| N#CC(Cc1cc(C(F)(F)F)cc(C(F)(F)F)c1)C(=O)Nc1nc(-c2ccccc2)cs1 (stereo not drawn) [Preparative Example 163, 3-(3,5-bis(trifluoromethyl)phenyl)-2-cyano-N-(4-phenylthiazol-2-yl)propanamide] | > 75% |  |
| Cc1ccnc(-c2csc(NC(=O)C(C#N)Cc3ccc(O)c(O)c3)n2)c1 (stereo not drawn) [Preparative Example 164, 2-cyano-3-(3,4-dihydroxyphenyl)-N-(4-(4-methylpyridin-2-yl)thiazol-2-yl)propanamide] | > 75% | 2 to 10 µM |
| N#CC(Cc1ccc(O)c(O)c1)C(=O)Nc1nc(-c2cccc(-c3ccccc3)c2)cs1 (stereo not drawn) [Preparative Example 138, N-(4-([1,1′-biphenyl]-3-yl)thiazol-2-yl)-2-cyano-3-(3,4-dihydroxyphenyl)propanamide] | > 75% | 2 to 10 µM |
| N#CC(Cc1ccc(O)c(O)c1)C(=O)Nc1nc(-c2ccc(Cl)cc2Cl)cs1 (stereo not drawn) [Preparative Example 171, 2-cyano-N-(4-(2,4-dichlorophenyl)thiazol-2-yl)-3-(3,4-dihydroxyphenyl)propanamide] | > 75% | < 2 µM |
| N#Cc1cc(CC(C#N)C(=O)Nc2nc(-c3ccccc3)cs2)ccc1O (stereo not drawn) [Preparative Example 151, 2-cyano-3-(3-cyano-4-hydroxyphenyl)-N-(4-phenylthiazol-2-yl)propanamide] | < 50% | 10 to 90 µM |
| N#CC(Cc1ccc2nc[nH]c2c1)C(=O)Nc1nc(-c2ccccc2)cs1 (stereo not drawn) [Preparative Example 142, 3-(1H-benzo[d]imidazol-6-yl)-2-cyano-N-(4-phenylthiazol-2-yl)propanamide] | < 50% | 10 to 90 µM |
| Cc1cc(CC(C#N)C(=O)Nc2nc(-c3ccccc3)cs2)cc(Cl)c1O (stereo not drawn) [Preparative Example 155, 3-(3-chloro-4-hydroxy-5-methylphenyl)-2-cyano-N-(4-phenylthiazol-2-yl)propanamide] | < 50% | 10 to 90 µM |
| CC(=O)Nc1ccc(CC(C#N)C(=O)Nc2nc(-c3ccccc3)cs2)cc1 (stereo not drawn) [Preparative Example 128, 3-(4-acetamidophenyl)-2-cyano-N-(4-phenylthiazol-2-yl)propanamide] | 50 to 75% |  |
| N#CC(Cc1ccc(O)c(O)c1)C(=O)Nc1nc(-c2ccc(Cl)c(Cl)c2)cs1 (stereo not drawn) [Preparative Example 160, 2-cyano-N-(4-(3,4-dichlorophenyl)thiazol-2-yl)-3-(3,4-dihydroxyphenyl)propanamide] | 50 to 75% | < 2 µM |
| N#CC(Cc1ccc(O)c(O)c1)C(=O)Nc1nc(-c2ccc(C3CCCCC3)cc2)cs1 (stereo not drawn) [Preparative Example 154, 2-cyano-N-(4-(4-cyclohexylphenyl)thiazol-2-yl)-3-(3,4-dihydroxyphenyl)propanamide] | > 75% | 2 to 10 µM |
| N#CC(Cc1ccc(O)c(O)c1)C(=O)Nc1nc(-c2ccc(C(F)(F)F)cc2)cs1 (stereo not drawn) [Preparative Example 132, 2-cyano-3-(3,4-dihydroxyphenyl)-N-(4-(4-(trifluoromethyl)phenyl)thiazol-2-yl)propanamide] | > 75% | 2 to 10 µM |
| Cc1ccccc1-c1csc(NC(=O)C(C#N)Cc2ccc(O)c(O)c2)n1 (stereo not drawn) [Preparative Example 161, 2-cyano-3-(3,4-dihydroxyphenyl)-N-(4-(o-tolyl)thiazol-2-yl)propanamide] | 50 to 75% | 2 to 10 µM |
| Cc1cc(-c2csc(NC(=O)C(C#N)Cc3ccc(O)c(O)c3)n2)cs1 (stereo not drawn) [Preparative Example 152, 2-cyano-3-(3,4-dihydroxyphenyl)-N-(4-(5-methylthiophen-3-yl)thiazol-2-yl)propanamide] | < 50% | 2 to 10 µM |
| N#CC(Cc1cc(Cl)c(O)c(Cl)c1)C(=O)Nc1nc(-c2ccccc2)c(-c2ccccc2)s1 (stereo not drawn) [Preparative Example 134, 2-cyano-3-(3,5-dichloro-4-hydroxyphenyl)-N-(4,5-diphenylthiazol-2-yl)propanamide] | < 50% | 2 to 10 µM |
| CC(C)c1ccc(-c2csc(NC(=O)C(C#N)Cc3ccc(O)c(O)c3)n2)cc1 (stereo not drawn) [Preparative Example 166, 2-cyano-3-(3,4-dihydroxyphenyl)-N-(4-(4-isopropylphenyl)thiazol-2-yl)propanamide] | > 75% | 2 to 10 µM |
| COc1ccc(-c2csc(NC(=O)C(C#N)Cc3ccc(O)c(O)c3)n2)nc1 (stereo not drawn) [Preparative Example 168, 2-cyano-3-(3,4-dihydroxyphenyl)-N-(4-(5-methoxypyridin-2-yl)thiazol-2-yl)propanamide] | > 75% | < 2 µM |
| CC(C#N)(Cc1ccc(O)c(O)c1)C(=O)Nc1nc(-c2ccccc2)cs1 (stereo not drawn) [Preparative Example 179, 2-cyano-3-(3,4-dihydroxyphenyl)-2-methyl-N-(4-phenylthiazol-2-yl)propanamide] | < 50% | 10 to 90 µM |
